Drawing on patent EP0542371A1, “Saccharin derivative proteolytic enzyme inhibitors” (STERLING WINTHROP INC., priority 1991, dated 1993), this text covers Ki and pKa for six compounds.

One series concerns the target T1, human leukocyte elastase (Homo sapiens, UniProt P08246).
T1 sequence (P08246 30-267): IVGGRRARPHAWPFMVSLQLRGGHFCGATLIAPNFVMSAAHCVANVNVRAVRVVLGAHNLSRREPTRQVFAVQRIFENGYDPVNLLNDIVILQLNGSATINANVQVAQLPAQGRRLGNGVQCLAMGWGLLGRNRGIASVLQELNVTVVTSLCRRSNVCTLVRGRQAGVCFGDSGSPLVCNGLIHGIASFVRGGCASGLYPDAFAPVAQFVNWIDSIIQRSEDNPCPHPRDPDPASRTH
Kind of series: Inhibition of human leukocyte elastase, in vitro (Ki* = koff/kon). In kind it is biochemical. The conditions noted are these: Ki* = koff/kon (rate of reactivation divided by rate of inactivation of the enzyme); calculated from measured koff and kon.

Series [1] in a line: pKa determination by titration in water. In kind it is physicochemical.
Series [2] in a line: pKa by ultraviolet spectrophotometric determination in water. In kind it is physicochemical.

The structures appear in SMILES notation.

Experimental for human leukocyte elastase: Ki*, which is defined as the rate of reactivation of the enzyme divided by the rate of inactivation of the enzyme (koff/on), was therefore determined instead. The values of koff and kon were measured and Ki* was then calculated.
The value of kon was determined by measuring the enzyme activity of an aliquot of the enzyme as a function of the time after addition of the test compound (inhibitor). […] The value of kon was then obtained by the equation kon = kobs[I] wherein [I] is the concentration of the inhibitor. The value of koff was similarly determined, and Ki* was then obtained by the equation Ki* = koff/kon.

`COc1cc(C(C)C)c2c(c1)S(=O)(=O)N(COC(=O)c1c(Cl)ccc(OCCN3CCOCC3)c1Cl)C2=O` [Example 2, 2-{2,6-dichloro-3-[2-(4-morpholinylethoxy)]benzoyloxymethyl}-4-isopropyl-6-methoxysaccharin]: the Ki at human leukocyte elastase was 0.014 nM.

Usually pKa stands for the negative logarithm of the acid dissociation constant. The low end stands for a group that gives up its proton readily, the high end for a group that holds its proton tightly. For the compound `N#Cc1nn[nH]c1C#N` [1,2,3-triazole-4,5-dinitrile], in series [1], the pKa worked out at 1.6.

Compound `COC(=O)c1nn[nH]c1C(=O)OC` [1,2,3-triazole-4,5-dicarboxylic acid dimethyl ester] had a pKa in series [1] of 4.4.

Regarding `NC(=O)c1nn[nH]c1C(N)=O` [1,2,3-triazole-4,5-dicarboxamide], the pKa in series [2] stood at 5.3.

As for `COc1cc(C(C)C)c2c(c1)S(=O)(=O)N(Cn1nnc(S(=O)(=O)C(C)(C)C)c1S(=O)(=O)C(C)(C)C)C2=O` [Example 1, 2-[4,5-di(t-butylsulfonyl)-1,2,3-triazol-1-yl]methyl-4-isopropyl-6-methoxysaccharin], the Ki on human leukocyte elastase is 0.024 nM.

In series [2], `Sc1nnnn1-c1ccccc1` [1-phenyltetrazole-5-thiol] showed a pKa of 2.9.
